SMILES strings stand for the structures. The source made the active and inactive calls. Unless noted, the calls are words filed in the database; no cut-off is given here.

Data set [1] relates to SH-SY5Y. Nature of the data set: Antiproliferative activity against human SH-SY5Y cells at 1 uM after 24 to 72 hrs by WST1 assay. Type of data set: cell-based. Background: Formazan colour is commonly taken as a measure of viable cells.
Data set [2] has as its target Acetylcholinesterase (Homo sapiens) (UniProt P22303). Nature of the data set: Inhibition of acetylcholinesterase (unknown origin) at 1 uM using acetylthiocholine chloride as substrate measured for 5 to 40 mins.
Data set [3] has as its system SH-SY5Y. As to the kind of experiment: Neuroprotective activity against amyloid beta (1 to 42 residues) induced cell death in human SH-SY5Y cells expressing APPswe mutant at 1 uM after 48 hrs by WST1 assay. Type of data set: functional, cell-based.
The nature of data set [4]: Metal chelating activity assessed as compound-Zn2+ complex formation by UV-vis spectrophotometric analysis.
A short description of data set [5]: Metal chelating activity assessed as compound-Fe3+ complex formation by UV-vis spectrophotometric analysis.
Data set [6] in a line: Metal chelating activity assessed as compound-Cu2+ complex formation by UV-vis spectrophotometric analysis.
The subject of data set [7] is SH-SY5Y. Nature of the data set: Inhibition of Cu2+-mediated amyloid beta (1 to 42 residues) production in human SH-SY5Y cells expressing APPswe mutant at 1 uM after 72 hrs by ELISA based spectrophotometric analysis. Format: cell-based.
The subject of data set [8] is SH-SY5Y. As to the kind of experiment: Inhibition of Fe3+-mediated amyloid beta (1 to 42 residues) production in human SH-SY5Y cells expressing APPswe mutant at 1 uM after 72 hrs by ELISA based spectrophotometric analysis. Type of data set: cell-based. (In an ELISA, binding on a coated surface is turned into a signal by an enzyme label.)
For data set [9], the system named is SH-SY5Y. As to the kind of experiment: Inhibition of Cu2+-mediated ROS generation in human SH-SY5Y cells expressing APPswe mutant at 1 uM after 72 hrs by DCF-DA dye-based fluorescence spectroscopic analysis. Format: cell-based.
Data set [10] concerns SH-SY5Y. As to the kind of experiment: Inhibition of Fe3+-mediated ROS generation in human SH-SY5Y cells expressing APPswe mutant at 1 uM after 72 hrs by DCF-DA dye-based fluorescence spectroscopic analysis. Format: cell-based.
The subject of data set [11] is SH-SY5Y. As to the kind of experiment: Inhibition of Cu2+-induced caspase-3 activity in human SH-SY5Y cells expressing APPswe mutant at 1 uM after 72 hrs by AcDEVD substrate-based spectrophotometric analysis. Format: cell-based.
Data set [12] relates to SH-SY5Y. As to the kind of experiment: Inhibition of Fe3+-induced caspase-3 activity in human SH-SY5Y cells expressing APPswe mutant at 1 uM after 72 hrs by AcDEVD substrate-based spectrophotometric analysis. Type of data set: cell-based.
The subject of data set [13] is SH-SY5Y. As to the kind of experiment: Inhibition of Cu2+-induced toxicity in human SH-SY5Y cells expressing APPswe mutant assessed as increase in cell viability at 1 uM after 72 hrs by WST1 assay. Type of data set: cell-based.
Data set [14] relates to SH-SY5Y. Nature of the data set: Inhibition of Fe3+-induced toxicity in human SH-SY5Y cells expressing APPswe mutant assessed as increase in cell viability at 1 uM after 72 hrs by WST1 assay. Type of data set: cell-based.
Data set [15] can be described thus: Effective permeability of the compound at pH 7.4 at 200 uM after 4 hrs by PAMPA-BBB assay. Type of data set: ADME. The settings on record: read-out: Peff. In general terms: PAMPA measures passive passage across an artificial lipid membrane.
Data set [16] has as its system SH-SY5Y. Nature of the data set: Effect on morphological changes in human SH-SY5Y cells expressing APPswe mutant assessed as decrease in adherent cell number at 1 uM after 72 hrs. Format: ADME, cell-based.
For data set [17], the system named is SH-SY5Y. As to the kind of experiment: Effect on morphological changes in human SH-SY5Y cells expressing APPswe mutant assessed as alteration of cell shape at 1 uM after 72 hrs. Format: ADME, cell-based.
Data set [18] has as its system SH-SY5Y. As to the kind of experiment: Inhibition of Zn2+-mediated amyloid beta (1 to 42 residues) production in human SH-SY5Y cells expressing APPswe mutant at 1 uM after 72 hrs by ELISA based spectrophotometric analysis. Format: cell-based.
Data set [19] concerns SH-SY5Y. Nature of the data set: Inhibition of Zn2+-mediated ROS generation in human SH-SY5Y cells expressing APPswe mutant at 1 uM after 72 hrs by DCF-DA dye-based fluorescence spectroscopic analysis. Type of data set: cell-based.
Data set [20] has as its system SH-SY5Y. Nature of the data set: Inhibition of Zn2+-induced caspase-3 activity in human SH-SY5Y cells expressing APPswe mutant at 1 uM after 72 hrs by AcDEVD substrate-based spectrophotometric analysis. Type of data set: cell-based.
For data set [21], the system named is SH-SY5Y. Nature of the data set: Inhibition of Zn2+-induced toxicity in human SH-SY5Y cells expressing APPswe mutant assessed as increase in cell viability at 1 uM after 72 hrs by WST1 assay. Type of data set: cell-based.
Data set [22] can be described thus: Effective permeability of the compound at 10^-5 mol/L after 5 hrs by UV-based PAMPA. Type of data set: ADME. The note with it: read-out: Peff.

Sequence of Acetylcholinesterase (Homo sapiens) (P22303 whole entry, the tested form may be a part): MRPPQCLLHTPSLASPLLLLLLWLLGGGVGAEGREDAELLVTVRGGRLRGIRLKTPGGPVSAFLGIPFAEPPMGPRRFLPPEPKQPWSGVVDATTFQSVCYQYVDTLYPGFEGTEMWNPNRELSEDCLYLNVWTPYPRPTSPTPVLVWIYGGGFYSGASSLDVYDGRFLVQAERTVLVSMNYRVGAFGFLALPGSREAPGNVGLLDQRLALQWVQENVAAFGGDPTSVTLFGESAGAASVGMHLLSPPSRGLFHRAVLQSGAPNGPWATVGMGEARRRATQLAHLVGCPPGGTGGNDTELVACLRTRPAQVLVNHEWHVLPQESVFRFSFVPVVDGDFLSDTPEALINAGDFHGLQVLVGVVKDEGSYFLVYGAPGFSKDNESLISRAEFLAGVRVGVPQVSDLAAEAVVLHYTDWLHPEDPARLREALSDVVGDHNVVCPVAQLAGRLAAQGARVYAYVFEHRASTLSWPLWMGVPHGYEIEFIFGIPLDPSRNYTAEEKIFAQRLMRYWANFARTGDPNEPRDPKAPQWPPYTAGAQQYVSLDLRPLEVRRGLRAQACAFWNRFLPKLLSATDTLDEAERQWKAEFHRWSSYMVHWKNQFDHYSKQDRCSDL

With `C[C@H](CCC(=O)N/N=C/c1ccc(C(C)(C)C)cc1O)[C@H]1CC[C@H]2[C@@H]3[C@H](O)C[C@@H]4C[C@H](O)CC[C@]4(C)[C@H]3C[C@H](O)[C@]12C`, the Activity result with SH-SY5Y [1] is “Non-Toxic”. Further, the inhibition result (in data set [2]; in the data set on SH-SY5Y [7]; in the data set with SH-SY5Y [8]) was “inactive” in each case. For the same molecule, the outcome (with SH-SY5Y [3]; in data set [5]; in [6]) was Active. The result in [4] was inactive. For the same molecule, the inhibition result with SH-SY5Y [9], in the data set with SH-SY5Y [10], with SH-SY5Y [11], in the data set with SH-SY5Y [12], in the data set on SH-SY5Y [13] and in the data set on SH-SY5Y [14] was “Active” throughout.
For `CC(C)NCC(O)COc1cccc2ccccc12` (centres undefined) [PROPRANOLOL], in [15], the Papp at 4 h, 200 µM is 10.3 ×10⁻⁶ cm/s.
For the molecule `COc1ccc(Nc2c(NN=C(c3ccccn3)c3ccccn3)c(=O)c2=O)cc1`, the Activity entry is recorded as “Non-Toxic” in the data set with SH-SY5Y [1], “Toxic” in the data set with SH-SY5Y [16] and “Toxic” with SH-SY5Y [17]. Besides, in data set [2], the inhibition entry is “inactive”. Further, the result (in the data set on SH-SY5Y [3]; in [4]) was inactive. Also, the result in [5] and in data set [6] was Active. The inhibition result in the data set on SH-SY5Y [7], with SH-SY5Y [8], in the data set with SH-SY5Y [9] and with SH-SY5Y [10] was “Active” throughout.
In the case of `Cc1ncc(CO)c(/C=N/NC(=O)CC[C@@H](C)[C@H]2CC[C@H]3[C@@H]4[C@H](O)C[C@@H]5C[C@H](O)CC[C@]5(C)[C@H]4C[C@H](O)[C@]23C)c1O`, the Activity result with SH-SY5Y [1] was “Non-Toxic”. In addition, the inhibition result (in the data set with SH-SY5Y [18]; in data set [2]; in the data set with SH-SY5Y [7]; in the data set on SH-SY5Y [8]) was “inactive” throughout. Moreover, the inhibition entry in the data set on SH-SY5Y [19], with SH-SY5Y [20], with SH-SY5Y [21], with SH-SY5Y [9], in the data set on SH-SY5Y [10] and in the data set with SH-SY5Y [11] was “Active” in each case. The inhibition entry with SH-SY5Y [12], in the data set with SH-SY5Y [13] and with SH-SY5Y [14] was “Active” throughout. In addition, the Papp at 5 h, 10 µM in data set [22] worked out at 7.5 ×10⁻⁶ cm/s. Further, the outcome (in the data set on SH-SY5Y [3]; in [4]; in data set [5]; in data set [6]) was Active.
In the case of `CCN1/C(=C/c2c(NN=C(c3ccccn3)c3ccccn3)c(=O)c2=O)Sc2ccccc21`, the Activity result in the data set on SH-SY5Y [1] was “Non-Toxic”; with SH-SY5Y [16] it was “Toxic”; with SH-SY5Y [17], “Toxic”. Further, the inhibition result in the data set on SH-SY5Y [18], with SH-SY5Y [19], with SH-SY5Y [7], with SH-SY5Y [8], in the data set with SH-SY5Y [9] and in the data set with SH-SY5Y [10] was “Active” each time. The inhibition entry in [2] was “inactive”. For the same molecule, in the data set with SH-SY5Y [3], the result was inactive. The outcome in [4], in data set [5] and in data set [6] was Active.
Regarding `C[C@H](CCC(=O)N/N=C/c1ccc2ccccc2n1)[C@H]1CC[C@H]2[C@@H]3[C@H](O)C[C@@H]4C[C@H](O)CC[C@]4(C)[C@H]3C[C@H](O)[C@]12C`, in the data set with SH-SY5Y [1], the Activity entry is recorded as “Non-Toxic”. The inhibition entry (in [2]; in the data set on SH-SY5Y [7]; in the data set with SH-SY5Y [8]) was “inactive” each time. Moreover, the result (in the data set on SH-SY5Y [3]; in [5]; in [6]) was Active. For the same molecule, the outcome in [4] was inactive. Also, the inhibition entry in the data set on SH-SY5Y [9], in the data set on SH-SY5Y [10], in the data set on SH-SY5Y [11], with SH-SY5Y [12], in the data set with SH-SY5Y [13] and with SH-SY5Y [14] was “Active” each time.
